Source: patent US10590123B2, “Pesticidally active amide heterocyclic derivatives with sulphur containing substituents” (SYNGENTA PARTICIPATIONS AG, priority 2014, dated 2020)

Tests used:
Type in all cases: in vivo
[1] = system: Thrips tabaci (Onion Thrips); assay: Example B11: Activity against Thrips tabaci, sprayed sunflower leaf discs; conditions: foliar, 144 h, application rate 200 ppm, thrips population of mixed ages, 6 days after infestation
Method: Example B11: Activity Against Thrips tabaci (Onion Thrips)
Sunflower leaf discs were placed on agar in 24-well microtiter plates and sprayed with aqueous test solutions prepared from 10′000 ppm DMSO stock solutions. After drying the leaf discs were infested with a thrips population of mixed ages. The samples were assessed for mortality 6 days after infestation.

[2] = system: Myzus persicae (Green Peach Aphid); assay: Example B8: Activity against Myzus persicae, sprayed sunflower leaf discs; conditions: foliar, 144 h, application rate 200 ppm, aphid population of mixed ages, 6 days after infestation
Method: Example B8: Activity Against Myzus persicae (Green Peach Aphid)
Sunflower leaf discs were placed on agar in a 24-well microtiter plate and sprayed with aqueous test solutions prepared from 10′000 ppm DMSO stock solutions. After drying, the leaf discs were infested with an aphid population of mixed ages. The samples were assessed for mortality 6 days after infestation.

[3] = system: Spodoptera littoralis (Egyptian Cotton Leaf Worm); assay: Example B2: Activity against Spodoptera littoralis, systemic via lettuce roots in agar; conditions: 144 h, application rate 12.5 ppm, 6 days after infestation, read-out: control in at least one of the three categories (mortality, anti-feedancy or growth inhibition)
Text: Example B2: Activity Against Spodoptera littoralis (Egyptian Cotton Leaf Worm)
Test compounds were applied by pipette from 10′000 ppm DMSO stock solutions into 24-well plates and mixed with agar. Lettuce seeds were placed on the agar and the multi well plate was closed by another plate which contains also agar. After 7 days the roots have absorbed the compound and the lettuce has grown into the lid plate. The lettuce leafs were now cut off into the lid plate. Spodoptera eggs were pipetted through a plastic stencil on a humid gel blotting paper and the plate closed with it.
The samples were assessed for mortality, anti-feedant effect and growth inhibition in comparison to untreated samples 6 days after infestation.

[4] = system: Diabrotica Balteata (Corn Root Worm); assay: Example B4: Activity against Diabrotica balteata, sprayed maize sprouts; conditions: 96 h, application rate 200 ppm, L2 larvae, 4 days after infestation, read-out: effect in at least one of the two categories (mortality or growth inhibition)
Method: Example B4: Activity Against Diabrotica Balteata (Corn Root Worm)
Maize sprouts, placed on an agar layer in 24-well microtiter plates were treated with aqueous test solutions prepared from 10′000 ppm DMSO stock solutions by spraying. After drying, the plates were infested with L2 larvae (6 to 10 per well). The samples were assessed for mortality and growth inhibition in comparison to untreated samples 4 days after infestation.

[5] = system: Spodoptera littoralis (Egyptian Cotton Leaf Worm); assay: Example B1: Activity against Spodoptera littoralis, sprayed cotton leaf discs; conditions: foliar, 72 h, application rate 200 ppm, L1 larvae, 3 days after infestation, read-out: control in at least one of the three categories (mortality, anti-feedancy or growth inhibition)
Summary of the method: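 Cotton leaf discs on agar were sprayed with aqueous dilutions of 10′000 ppm DMSO stocks, dried, and infested with five L1 larvae. Mortality, anti-feedant effect and growth inhibition were scored 3 days after infestation against untreated discs. Control means at least one of these exceeds the untreated sample.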

[6] = system: Plutella xylostella (Diamond Back Moth); assay: Example B3: Activity against Plutella xylostella, artificial diet; conditions: 120 h, application rate 200 ppm, L2 larvae, 5 days after infestation, read-out: effect in at least one of the two categories (mortality or growth inhibition)
Method: Example B3: Activity Against Plutella xylostella (Diamond Back Moth)
24-well microtiter plates with artificial diet were treated with aqueous test solutions prepared from 10′000 ppm DMSO stock solutions by pipetting. After drying, the plates were infested with L2 larvae (10 to 15 per well). The samples were assessed for mortality and growth inhibition in comparison to untreated samples 5 days after infestation.

[7] = system: Frankliniella occidentalis (Western Flower Thrips); assay: Example B5: Activity against Frankliniella occidentalis, sprayed sunflower leaf discs; conditions: foliar, 168 h, application rate 200 ppm, population of mixed ages, 7 days after infestation
Method: Example B5: Activity Against Frankliniella occidentalis (Western Flower Thrips)
Sunflower leaf discs were placed on agar in 24-well microtiter plates and sprayed with aqueous test solutions prepared from 10′000 ppm DMSO stock solutions. After drying the leaf discs were infested with a Frankliniella population of mixed ages. The samples were assessed for mortality 7 days after infestation.

[8] = system: Euschistus heros (Neotropical Brown Stink Bug); assay: Example B7: Activity against Euschistus heros, sprayed soybean leaf; conditions: 120 h, application rate 200 ppm, N-2 nymphs, 5 days after infestation
Method: Example B7: Activity Against Euschistus heros (Neotropical Brown Stink Bug)
Soybean leaf on agar in 24-well microtiter plates were sprayed with aqueous test solutions prepared from 10′000 ppm DMSO stock solutions. After drying the leaf were infested with N-2 nymphs. The samples were assessed for mortality 5 days after infestation.

[9] = system: Bemisia tabaci (Cotton White Fly); assay: Example B6: Activity against Bemisia tabaci, sprayed cotton leaf discs; conditions: foliar, 144 h, application rate 200 ppm, adult white flies, 6 days after incubation
Method: Example B6: Activity Against Bemisia tabaci (Cotton White Fly)
Cotton leaf discs were placed on agar in 24-well microtiter plates and sprayed with aqueous test solutions prepared from 10′000 ppm DMSO stock solutions. After drying the leaf discs were infested with adult white flies. The samples were checked for mortality 6 days after incubation.

[10] = system: Tetranychus urticae (Two-Spotted Spider Mite); assay: Example B12: Activity against Tetranychus urticae, sprayed bean leaf discs; conditions: foliar, 192 h, application rate 200 ppm, mixed population (mobile stages), 8 days after infestation
Method: Example B12: Activity Against Tetranychus urticae (Two-Spotted Spider Mite)
Bean leaf discs on agar in 24-well microtiter plates were sprayed with aqueous test solutions prepared from 10′000 ppm DMSO stock solutions. After drying the leaf discs were infested with a mite population of mixed ages. The samples were assessed for mortality on mixed population (mobile stages) 8 days after infestation.

[11] = system: Myzus persicae (Green Peach Aphid); assay: Example B9: Activity against Myzus persicae, systemic via pea seedling roots; conditions: 144 h, test rate 24 ppm, pea seedling roots in test solution, 6 days
Method: Example B9: Activity Against Myzus persicae (Green Peach Aphid)
Roots of pea seedlings infested with an aphid population of mixed ages were placed directly in the aqueous test solutions prepared from 10′000 DMSO stock solutions. The samples were assessed for mortality 6 days after placing seedlings in test solutions.

CCS(=O)(=O)c1cc(-c2ccccc2)cnc1C(=O)N(C)c1nnc(C(F)(F)F)s1 [Compound P5, 3-ethylsulfonyl-N-methyl-5-phenyl-N-[5-(trifluoromethyl)-1,3,4-thiadiazol-2-yl]pyridine-2-carboxamide]
≥ 80%: mortality at 200 ppm [1] | mortality at 200 ppm [2] | percent control (mortality, anti-feedant effect or growth inhibition) at 12.5 ppm [3] | percent effect (mortality or growth inhibition) at 200 ppm [4] | percent control (mortality, anti-feedant effect or growth inhibition) at 200 ppm [5] | percent effect (mortality or growth inhibition) at 200 ppm [6] | mortality at 200 ppm [7] | mortality at 200 ppm [8]

CCS(=O)(=O)c1cc(-c2ccc(Cl)cc2)cnc1C(=O)N(C)c1nnc(C(F)(F)C(F)(F)F)s1 [Compound P14]
≥ 80%: mortality at 200 ppm [1] | mortality at 200 ppm [2] | percent control (mortality, anti-feedant effect or growth inhibition) at 12.5 ppm [3] | percent effect (mortality or growth inhibition) at 200 ppm [4] | percent control (mortality, anti-feedant effect or growth inhibition) at 200 ppm [5] | percent effect (mortality or growth inhibition) at 200 ppm [6] | mortality at 200 ppm [8]

CCS(=O)(=O)c1cc(C2(C#N)CC2)cnc1C(=O)N(C)c1nnc(C(F)(F)C(F)(F)F)s1 [Compound P20, 5-(1-cyanocyclopropyl)-3-ethylsulfonyl-N-methyl-N-[5-(1,1,2,2,2-pentafluoroethyl)-1,3,4-thiadiazol-2-yl]pyridine-2-carboxamide]
≥ 80%: mortality at 200 ppm [1] | mortality at 200 ppm [2] | percent control (mortality, anti-feedant effect or growth inhibition) at 12.5 ppm [3] | percent effect (mortality or growth inhibition) at 200 ppm [4] | percent control (mortality, anti-feedant effect or growth inhibition) at 200 ppm [5] | mortality at 200 ppm [9] | percent effect (mortality or growth inhibition) at 200 ppm [6] | mortality at 200 ppm [7] | mortality at 200 ppm [8]

CCS(=O)(=O)c1cc(-c2cc(F)ccc2F)cnc1C(=O)N(C)c1nnc(C(F)(F)F)s1 [Compound P33]
≥ 80%: mortality at 200 ppm [2] | percent control (mortality, anti-feedant effect or growth inhibition) at 12.5 ppm [3] | mortality at 200 ppm [10] | percent effect (mortality or growth inhibition) at 200 ppm [4] | percent control (mortality, anti-feedant effect or growth inhibition) at 200 ppm [5] | mortality at 200 ppm [9] | percent effect (mortality or growth inhibition) at 200 ppm [6] | mortality at 200 ppm [8]

CCS(=O)(=O)c1cc(-c2ccc(Cl)c(Cl)c2)cnc1C(=O)N(C)c1nnc(C(F)(F)F)s1 [Compound P36]
≥ 80%: mortality at 200 ppm [10] | percent effect (mortality or growth inhibition) at 200 ppm [4] | percent control (mortality, anti-feedant effect or growth inhibition) at 200 ppm [5] | percent effect (mortality or growth inhibition) at 200 ppm [6] | mortality at 200 ppm [8]

CCS(=O)(=O)c1cc(-c2cccc(Cl)n2)cnc1C(=O)N(C)c1nnc(C(F)(F)F)s1 [Compound P49]
≥ 80%: mortality at 200 ppm [10] | percent effect (mortality or growth inhibition) at 200 ppm [4] | percent control (mortality, anti-feedant effect or growth inhibition) at 200 ppm [5] | percent effect (mortality or growth inhibition) at 200 ppm [6] | mortality at 200 ppm [8]

CCS(=O)(=O)c1cc(-c2cncnc2)cnc1C(=O)N(C)c1nnc(C(F)(F)F)s1 [Compound P58]
≥ 80%: mortality at 200 ppm [2] | mortality at 24 ppm [11] | percent effect (mortality or growth inhibition) at 200 ppm [6]

CCS(=O)(=O)c1cc(-c2cc(C#N)ccn2)cnc1C(=O)N(C)c1nnc(C(F)(F)F)s1 [Compound P61]
≥ 80%: mortality at 200 ppm [2] | percent control (mortality, anti-feedant effect or growth inhibition) at 12.5 ppm [3] | mortality at 200 ppm [10] | percent effect (mortality or growth inhibition) at 200 ppm [4] | percent control (mortality, anti-feedant effect or growth inhibition) at 200 ppm [5] | mortality at 200 ppm [9] | percent effect (mortality or growth inhibition) at 200 ppm [6] | mortality at 200 ppm [8]

CCS(=O)(=O)c1cc(-c2cc(C(F)(F)F)ccn2)cnc1C(=O)N(C)c1nnc(C(F)(F)F)s1 [Compound P65]
≥ 80%: mortality at 200 ppm [1] | mortality at 200 ppm [2] | percent effect (mortality or growth inhibition) at 200 ppm [4] | percent control (mortality, anti-feedant effect or growth inhibition) at 200 ppm [5] | percent effect (mortality or growth inhibition) at 200 ppm [6] | mortality at 200 ppm [8]
